Article PMC10384183, “Silver(I) and Copper(II) 1,10-Phenanthroline-5,6-dione Complexes as Promising Antivirulence Strategy against Leishmania: Focus on Gp63 (Leishmanolysin)” (Tropical Medicine and Infectious Disease, 2023)
Read-outs that look alike come from different tables or passages of the source. Where a SMILES comes first, the peptide text is derived from it. The star is where a group is joined. AMC = Cc1cc(=O)oc2cc(N*)ccc12; Cbz = O=C(OCc1ccccc1)*

How the values were obtained:
secreted gp63 [1] = molecular target: T1, secreted gp63 (Leishmania amazonensis, UniProt Q27673); assay: Detection of gp63 activity using fluorogenic substrate Z-Phe-Arg-AMC (kinetics, classical inhibitors); format: biochemical; set-up: endogenous in cells; host or cells: Leishmania amazonensis promastigotes; 0.22-µm filtered PBS-glucose-conditioned supernatant; details: for effect on hydrolysis of Z-Phe-Arg-AMC by gp63: 1 h, alkaline pH
Procedure: The enzymatic activity of secreted gp63 was evaluated by the cleavage of the fluorogenic substrate Z-Phe-Arg-AMC. A 5 mM stock solution of the fluorogenic substrate was prepared in DMSO. The reaction was initiated by adding different substrate concentrations (2.5 µM, 5.0 µM, 10 µM and 20 µM) to gp63 (20 µg protein) in a total volume of 100 µL of 50 mM glycine-NaOH buffer, pH 10.0 [38]. At the same time, the titration of the amount of gp63 was also performed. In this sense, different concentrations of gp63 (ranging from 0.156 to 20 µg) were added to 10 µM Z-Phe-Arg-AMC substrate in a total volume of 100 µL of 50 mM glycine-NaOH buffer, pH 10.0. […] The reaction mixture was incubated at 37 °C for 1 h and the assays were controlled for self-release of the fluorophore in the same time interval. Proteolytic activity was expressed as fluorescence arbitrary units (FAU). Apparent Km and Vmax values were calculated using a computerized non-linear regression from the data obtained from the Michaelis–Menten equation (GraphPad Prism 8).

[2] = system: L. braziliensis gp63, membrane-associated form; set-up: method as in PMID 34363115; details: cited from earlier work
[3] = system: L. braziliensis promastigotes and murine macrophages; set-up: method as in PMID 34363115; details: promastigotes pre-treated for 1 h; cited from earlier work
[4] = system: L. amazonensis promastigotes and THP-1 human macrophages; assay: Promastigotes-macrophage interaction (association index); format: cell-based, Leishmania amazonensis; set-up: key: % infected macrophages × amastigotes per macrophage
Procedure: The human leukemia monocytic cell line (THP-1) was maintained in 25-cm^2 tissue culture flasks with RPMI 1640 medium (Sigma-Aldrich, St. Louis, MO, USA) supplemented with 10% FBS at 37 °C in an atmosphere containing 5% CO2. To perform interaction experiments, THP-1 cells were seeded in 24-well plates at a density of 2 × 10^5 cells/well and then differentiated into macrophages by treatment with phorbol-12-myristate-13-acetate (PMA; 40 ng/mL) (Sigma-Aldrich) for 48 h. Then, the plates were washed twice with sterile PBS (pH 7.2) to remove PMA and a fresh RPMI 1640 medium was added. At the same time, L. amazonensis promastigotes were treated with the IC50 or 2 × IC50 values of the test compounds for 24 h. After this period, the parasites were allowed to infect the mammalian cells (10 parasites per macrophage) for 24 h at 37 °C and 5% CO2, in the absence or presence of 10 µg soluble gp63. Then, the cultures were washed with PBS to remove non-internalized parasites, fixed with methanol and stained with Giemsa. The percentage of infected macrophages was determined by randomly counting 200 cells on each of triplicate coverslips using a bright-field microscope. The association index was obtained by multiplying the percentage of infected macrophages by the number of amastigotes per macrophage.

L. braziliensis = system: L. braziliensis; set-up: method as in doi:10.1016/j.ejmcr.2022.100093; details: hamsters; cited from earlier work
[5] = system: cell-associated metallo-type peptidases (gp63); assay: gp63 proteolytic activity of cell extracts of treated promastigotes; format: cell-based, Leishmania amazonensis; details: promastigotes treated 24 h, IC50 and 2 × IC50; Z-Phe-Arg-AMC; versus untreated cells
Procedure: After that, promastigotes were washed and processed to evaluate both gp63 activity and gp63 protein levels.
For gp63 proteolytic activity, initially, whole parasite cellular extracts were obtained by repeated freeze/thawing cycles using 10^6 viable cells in PBS containing 1% CHAPS (3-[(3-cholamidopropyl) dimethylammonium]-1-propanesulfonate), pH 7.0. […] The gp63 proteolytic activity was determined as previously described using the cleavage of the fluorogenic substrate Z-Phe-Arg-AMC.

papain = system: papain; set-up: method as in PMID 8907521; details: cited from earlier work
secreted gp63 [6] = molecular target: T1, secreted gp63; assay: Gelatin-SDS-PAGE zymography of gp63 proteolysis; format: biochemical; set-up: endogenous in cells; host or cells: Leishmania amazonensis promastigotes; 0.22-µm filtered PBS-glucose-conditioned supernatant; details: 10 mM, pH 10.0, 48 h, 37 °C
Procedure: Proteolytic activity was assayed by SDS-PAGE containing 0.1% gelatin (Sigma-Aldrich, St. Louis, MO, USA) incorporated into the gel as the proteinaceous substrate. Briefly, 10 micrograms of proteins present in the PBS-glucose-conditioned supernatant were added to the SDS-PAGE sample buffer (125 mM Tris, pH 6.8, 4% SDS, 20% glycerol and 0.002% bromophenol blue) and subsequently subjected to electrophoresis, which was processed at 200 V/20 mA, for 2 h at 4 °C. Subsequently, SDS was removed by incubation of the gels with 2.5% Triton X-100 (Sigma-Aldrich, St. Louis, MO, USA) for 1 h at room temperature under constant agitation. The gels were incubated for 48 h at 37 °C in 50 mM glycine-NaOH buffer, pH 10.0, to promote proteolysis in the absence and in the presence of classical proteolytic inhibitors as follows: 10 mM phen, 10 mM phenylmethylsulphonyl fluoride (PMSF; Sigma-Aldrich, St. Louis, MO, USA) and 10 µM trans-epoxysuccinyl L-leucylamido-(4-guanidino) butane (E-64; Sigma-Aldrich, St. Louis, MO, USA). Finally, the gels were stained with 0.2% Coomassie Brilliant Blue R-250 (Sigma-Aldrich, St. Louis, MO, USA) in methanol–acetic acid–water (50:10:40) and destained in a solution containing methanol–acetic acid–water (5:10:85). The molecular masses of the peptidases were estimated by comparison with the mobility of molecular mass standards (Thermo Fisher Scientific, Waltham, MA, USA).

LasB = molecular target: LasB; set-up: method as in PMID 31428062; details: cited from earlier work
[7] = system: L. amazonensis promastigotes; set-up: method as in PMID 36678418; details: 72 h of parasite-drug contact; cited from earlier work
secreted gp63 [8] = molecular target: T1, secreted gp63
Procedure: (§1) L. amazonensis promastigotes (10^9 cells) were resuspended in 2 mL of sterile isotonic PBS supplemented with 2% glucose and incubated for 3 h at both 26 °C (invertebrate host temperature) and 37 °C (mammalian host temperature). After this interval, parasite cells were removed by centrifugation and the supernatant (named PBS-glucose-conditioned supernatant) was passed over a 0.22-μm sterilizing membrane (Millipore, São Paulo, Brazil). The protein concentration was quantified by the method described by Lowry et al. [35], using bovine serum albumin (BSA) as standard.
(§2) To perform this, the reaction mixture containing 10 μg protein, 10 µM substrate and 50 mM glycine-NaOH buffer, pH 10.0, was incubated in the absence or presence of different concentrations of Ag-phendione (ranging from 40 to 0.625 μM) and Cu-phendione (ranging from 1000 to 15.62 μM). Fluorescence was measured using a SpectraMax Gemini XPS fluorescence microplate reader (Molecular Devices, Silicon Valley, CA, USA) at an excitation wavelength of 380 nm and an emission wavelength of 460 nm. […] The inhibitory constant (Ki) value was calculated using a derivation of the Michaelis–Menten equation employing GraphPad Prism 8.

[9] = system: L. amazonensis amastigotes; set-up: method as in PMID 36678418; details: amastigotes in THP-1 macrophages; cited from earlier work
secreted gp63 [10] = molecular target: T1, secreted gp63; assay: biochemical
Procedure: as §1, §2

[11] = promastigotes pre-treated 24 h with 2 × IC50 value, in the presence of 10 µg gp63-rich supernatant
[12] = promastigotes pre-treated 24 h with 2 × IC50 value, without gp63-rich supernatant
[13] = promastigotes pre-treated 24 h with IC50 value, in the presence of 10 µg gp63-rich supernatant
[14] = promastigotes pre-treated 24 h with IC50 value, without gp63-rich supernatant

T1 sequence (Q27673 100-597): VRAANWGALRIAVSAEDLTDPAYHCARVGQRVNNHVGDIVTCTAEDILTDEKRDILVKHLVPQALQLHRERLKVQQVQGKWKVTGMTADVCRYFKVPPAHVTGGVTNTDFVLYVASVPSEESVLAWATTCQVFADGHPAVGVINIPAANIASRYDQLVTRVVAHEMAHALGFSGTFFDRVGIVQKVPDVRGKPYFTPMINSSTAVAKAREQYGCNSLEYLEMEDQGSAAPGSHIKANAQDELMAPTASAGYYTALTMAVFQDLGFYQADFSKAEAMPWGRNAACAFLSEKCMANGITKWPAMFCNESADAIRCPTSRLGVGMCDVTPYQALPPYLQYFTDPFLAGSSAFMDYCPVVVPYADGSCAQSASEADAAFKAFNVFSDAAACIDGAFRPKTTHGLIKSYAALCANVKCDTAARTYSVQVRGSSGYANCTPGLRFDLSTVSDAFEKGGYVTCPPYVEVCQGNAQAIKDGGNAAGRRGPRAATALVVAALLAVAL

Molecule: Cc1cc(=O)oc2cc(NC(=O)C(CCCN=C(N)N)NC(=O)C(Cc3ccccc3)NC(=O)OCc3ccccc3)ccc12 (stereo not drawn) [Z-Phe-Arg-AMC] (Cbz-Phe-Arg-{AMC}; configuration not given here)
- Vmax (secreted gp63 [1]; cleavage of Z-Phe-Arg-AMC by released gp63, pH 10.0, 37 °C): 0.064 µM/s
- Km (secreted gp63 [1]; cleavage of Z-Phe-Arg-AMC by released gp63, pH 10.0, 37 °C, read-out: apparent Km): 14.2 µM

Molecule: CC(C)C[C@H](NC(=O)[C@H]1O[C@@H]1C(=O)O)C(=O)NCCCCN=C(N)N (relative stereo) [E-64, trans-epoxysuccinyl L-leucylamido-(4-guanidino) butane]
- effect on hydrolysis of Z-Phe-Arg-AMC by gp63 (secreted gp63 [1]; inhibitor at 10 µM): did not significantly change the enzymatic activity

Molecule: O=C1C(=O)c2cccnc2-c2ncccc21.O=C1C(=O)c2cccnc2-c2ncccc21.[Ag+].[O-][Cl+3]([O-])([O-])[O-] [Ag-phendione, [Ag(phendione)2]ClO4]
- reduction of proteolytic activity ([2]; 1 μg/mL): 68%
- reduction of the Leishmania-macrophage interaction [3]: approximately 51.4%
- association index (AI) [4, 11]: 77.3
- association index (AI) [4, 12]: 48.2
- association index (AI) [4, 13]: 88.1
- association index (AI) [4, 14]: 60.6
- protective action (paw lesion, parasite number in paw and lymph nodes) (L. braziliensis): excellent protective action
- proteolytic capacity of cell-associated metallo-type peptidases reduced to [5]: approximately 55%

Molecule: oryzacystatin I1 [OCII, reference compound]
- proteolytic activity of papain restored after electrophoresis (papain): ~100%

Molecule: c1cnc2c(c1)ccc1cccnc12 [Phen, 1,10-phenanthroline]
- effect on proteolytic bands around 66 kDa (secreted gp63 [6]): inhibited
- effect on hydrolysis of Z-Phe-Arg-AMC by gp63 (secreted gp63 [1]; inhibitor at 10 mM): strong inhibition of the proteolytic activity

Molecule: O.O.O.O.O=C1C(=O)c2cccnc2-c2ncccc21.O=C1C(=O)c2cccnc2-c2ncccc21.O=C1C(=O)c2cccnc2-c2ncccc21.[Cu+2].[O-][Cl+3]([O-])([O-])[O-].[O-][Cl+3]([O-])([O-])[O-] [Cu-phendione, [Cu(phendione)3](ClO4)2.4H2O]
- Ki (LasB): 0.09 µM
- IC50 [7]: 0.0075 µM
- reduction of proteolytic activity ([2]; 0.1 μg/mL): 65%
- reduction of proteolytic activity ([2]; 1 μg/mL): 80%
- reduction of the Leishmania-macrophage interaction [3]: 44.4%
- IC50 (secreted gp63 [8]; secreted gp63 10 µg, 10 µM Z-Phe-Arg-AMC, glycine-NaOH pH 10.0, 37 °C, 1 h): 163 µM
- Ki (secreted gp63 [8]; secreted gp63, Z-Phe-Arg-AMC, glycine-NaOH pH 10.0): 27.1 µM
- association index (AI) [4, 11]: 64.6
- association index (AI) [4, 12]: 54.8
- association index (AI) [4, 13]: 76.5
- association index (AI) [4, 14]: 63.1
- IC50 [9]: 0.035 µM
- protective action (paw lesion, parasite number in paw and lymph nodes) (L. braziliensis): excellent protective action
- proteolytic capacity of cell-associated metallo-type peptidases reduced to [5]: approximately 48%

Molecule: O=C1C(=O)c2cccnc2-c2ncccc21 [Phendione, 1,10-Phenanthroline-5,6-dione]
- Ki (LasB): 0.38 µM
- IC50 (secreted gp63 [10]): 1490 µM
- Ki (secreted gp63 [10]): 745 µM
- reduction of proteolytic activity ([2]; 1 μg/mL): 67%

Molecule: O=S(=O)(F)Cc1ccccc1 [PMSF, phenylmethylsulphonyl fluoride]
- effect on hydrolysis of Z-Phe-Arg-AMC by gp63 (secreted gp63 [1]; inhibitor at 10 mM): did not significantly change the enzymatic activity

B1: oryzacystatin I (protein, UniProt P09229 27-140, looked up)
Cysteine proteinase inhibitor …: EAHRAGGEGEEKMSSDGGPVLGGVEPVGNENDLHLVDLARFAVTEHNKKANSLLEFEKLVSVKQQVVAGTLYYFTIEVKEGDAKKLYEAKVWEKPWMDFKELQEFKPVDASANA
- inhibition of enzymatic activity of papain by the complex after electrophoresis (papain): about 80%
